Data published in publication PMC12787000 (Molecules, 2025).

Columns and labels:
Format in all cases: cell-based
[1] = test system: HaCaT (human keratinocytes); assay: MTT cell viability assay, HaCaT; conditions: 72 h
Description: (§1) A375, MRC-5, and HaCaT cell lines were obtained from the American Type Culture Collection (ATCC). 518A2 cell line was kindly provided by Dr. […]ć. All cell lines were cultured in RPMI 1640 medium supplemented with 2 g/L glucose, 10% fetal bovine serum (FBS), and antibiotics. […] Cell viability was assessed using the MTT assay (Sigma Aldrich, #M5655). […] After 72 h of incubation, absorbance was measured at 570 nm using a Multiskan SkyHigh microplate reader (Thermo Fisher Scientific, Helsinki, Finland). Values were corrected by subtracting the absorbance measured in wells containing cell-free medium with tested compounds.

[2] = test system: A375 cells; assay: Cellular uptake and subcellular distribution by LC-MS/MS; conditions: A375, 25 μM, 24 h; for Compound accumulation normalized to telmisartan, Chromatin Bound: chromatin-bound nuclear fraction; for Compound accumulation normalized to telmisartan, Cytoplasm: cytoplasmic fraction; for Compound accumulation normalized to telmisartan, Cytoskeleton: cytoskeletal fraction; for Compound cell accumulation normalized to telmisartan, Whole Lysate: μmol compound per μg cell protein normalized to telmisartan
Description: Cells were then trypsinized, washed with PBS and pelleted. For whole cell lysates, cell pellet was dissolved in RIPA buffer on ice. Fractions and whole cell lysates were stored at -80 °C until use. Protein concentration of lysates was determined with Pierce BCA Protein assay kit (Thermo Fisher #23225), and cell accumulation was calculated as μmol of compound per μg of cell protein and normalized to telmisartan. Concentrations of telmisartan and its derivatives were determined using liquid chromatography-tandem mass spectrometry (LC-MS/MS) method in positive HESI mode. The analysis was performed on UHPLC chromatograph […] (Thermo Fisher Scientific Inc., Madison, WI, USA), coupled to a triple quadrupole mass spectrometer TSQ Quantum Access MAX (Thermo Fisher Scientific Inc., Madison, WI, USA) with heated electrospray ionization (HESI) interface. The column was Zorbax Extend C18 (150 mm × 4.6 mm, 5 μm particle size). […] Experiment was repeated twice.

[3] = target: T1, AT1R (Homo sapiens, UniProt P30556); assay: Angiotensin II-induced Ca2+ release, Fluo-4 AM live-cell imaging; conditions: 2 min; for Effect on AngII-induced Ca2+ increase (combination treatment): A375, 25 μM compound + 1 μM AngII; for Effect of compound alone on baseline Ca2+ signaling: A375, compound alone
T1 construct: endogenous in cells; host or cells: A375 melanoma cells (ATCC)
T1 sequence (P30556 1-359): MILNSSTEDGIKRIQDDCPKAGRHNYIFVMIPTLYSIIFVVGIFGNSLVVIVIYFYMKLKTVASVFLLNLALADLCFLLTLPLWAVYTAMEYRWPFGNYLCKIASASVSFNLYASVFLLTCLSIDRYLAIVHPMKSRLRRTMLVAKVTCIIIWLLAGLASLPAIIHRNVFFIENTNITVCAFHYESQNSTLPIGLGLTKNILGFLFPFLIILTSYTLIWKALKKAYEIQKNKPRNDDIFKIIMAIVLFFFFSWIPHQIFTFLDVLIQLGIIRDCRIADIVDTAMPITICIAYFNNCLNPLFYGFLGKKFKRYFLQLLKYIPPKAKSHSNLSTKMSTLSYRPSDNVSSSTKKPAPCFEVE
Description: Fluo-4 AM calcium indicator dye (F14201, Molecular Probes, Eugene, OR, USA) was used to observe Ca^2+ dynamics upon treatment, per manufacturer’s instructions. Briefly, 5000 A375 cells/well were seeded in 96-well optical bottom black cell culture plates (165305, Thermo Scientific). Fluo-4 AM stock solution in DMSO was mixed with equal volume of 20% Pluronic F-127 to assist in dispersion of AM esters before dilution into the loading medium. Twenty-four hours after seeding medium was removed, and cells were washed with HBBS without calcium and magnesium. Cells were stained in HBSS medium with 1.25 μM Fluo-4-AM for 30 min at 37 °C. After incubation, cells were washed and incubated in complete medium (10%FBS RPMI) to allow de-esterification for 30 min and then treated with 1 μM human Angiotensin II (A9525, Sigma Aldrich), 50 μM telmisartan, compounds 1, 3, and 8, or the combinations. Images were taken before addition of the treatment (0 min) and after 2 min of treatment on Zeiss PALM MicroBeam Axio Observer Z1 microscope (Carl Zeiss MicroImaging GmbH, Oberkochen, Germany) with Zeiss LD Plan-Neofluar 20×/0.4 Korr, ∞/0–1.5 mm lens and AxioVision SE64 Rel.4.9.1 software. Experiment was repeated three times. Integrated density of Fluo-4 fluorescence at 2 min of exposure to treatment was calculated with Image J, and normalized to the baseline fluorescence at time 0, in at least two random fields for each condition. Conditions were compared with one-way ANOVA and Tukey’s multiple comparisons test. p < 0.05 was considered statistically significant.

[4] = test system: A375 cells; assay: Mitochondrial morphology staining (MitoTracker Green FM); conditions: A375, 25 μM, 24 h
Description: For imaging of the mitochondrial morphology in live cells, A375 cells seeded in 96-well optical bottom plates, as above, were treated for 24 h with 25 μM telmisartan, compound 1, 3, or 8. Treatment was washed away, and cells were stained with 500 nM MitoTracker Green FM (#9074, Cell signaling Technology, Danvers, MA, USA) in RPMI without serum for 30 min at 37 °C. Cells were imaged on Zeiss PALM MicroBeam Axio Observer Z1 microscope (Carl Zeiss MicroImaging GmbH, Oberkochen, Germany) with Zeiss LD Plan-Neofluar 20×/0.4 Korr, ∞/0–1.5 mm lens and AxioVision software. Mitochondrial shape was quantified in images from two biological experimental repeats, in three random fields for each condition, using Image J Analyze Particles function. Images were first processed to 8-bit binary, and circularity and aspect ratio (major axis/minor axis) were calculated and plotted with Prism 9 (GraphPad Software, LLC, Boston, MA, USA). Treatments were compared with untreated control using one-way ANOVA and Dunnett’s multiple comparisons test. p < 0.05 was considered statistically significant.

[5] = test system: 518A2 cells; assay: MTT cell viability assay, 518A2; conditions: Homo sapiens; 518A2, MTT, 72 h
Description: as §1

[6] = test system: A375 cells; assay: Cell cycle distribution (PI, flow cytometry), A375; conditions: A375, 25 µM, 72 h
Description: (§2) A375 and A375R cells were seeded in 6-well plates at a density of 150,000 cells per well. On the following day, the cells were treated with 25 µM concentrations of compounds 1, 3, and 8, as well as telmisartan. After 72 h of incubation, the cells were harvested using trypsin, washed with phosphate-buffered saline (PBS), fixed in ethanol, and stored at −20 °C until analysis. Ethanol-fixed cells were treated with RNase A (1 mg/mL) and stained with propidium iodide (PI; 400 µg/mL). A total of 20,000 events were recorded per sample. Quantitative analysis of the cell cycle phase distribution was performed by flow cytometry using a FACSCalibur flow cytometer (Becton Dickinson, San Jose, CA, USA) and BD CellQuest Pro Version 5.2.1 software. Experiment was performed three times. Cells under treatment were compared to controls for each cell phase separately with one-way ANOVA and Dunnett’s multiple comparison tests. p < 0.05 was considered statistically significant.

[7] = test system: A375R cells; assay: Cell cycle distribution (PI, flow cytometry), A375R; conditions: 25 µM, 72 h
Description: as §2

Compound accumulation normalized to telmisartan, Chromatin Bound [2] | Compound accumulation normalized to telmisartan, Cytoplasm [2] | Compound accumulation normalized to telmisartan, Cytoskeleton [2] | Accumulation in the membrane fraction ([2]; membrane fraction) | Compound cell accumulation normalized to telmisartan, Whole Lysate [2] | Compound accumulation normalized to telmisartan, Membrane ([2]; membrane fraction) | Structure (SMILES) | IC50 [1] | Effect on AngII-induced Ca2+ increase (combination treatment) [3] | Effect of compound alone on baseline Ca2+ signaling [3] | Mitochondrial network morphology [4] | IC50 [5] | Cell cycle distribution [6] | Cell cycle distribution [7]
11.90 | 11.17 | 7.44 | 26.814 µmol/L | 4.41 | – | CCCc1nc2c(C)cc(-c3nc4ccccc4n3C)cc2n1Cc1ccc(-c2ccccc2C(=O)NC(Cc2ccccc2)C(=O)O)cc1 (stereo not drawn) [compound 8, 2-{[4′-(1,7′-dimethyl-2′-propyl-1H-[2,5′]bibenzoimidazolyl-3′-ylmethyl)-biphenyl-2-carbonyl]-amino}-3-phenyl-propionic acid] | 70.8 ± 6.99 µM | did not prevent AngII-induced Ca^2+ increase | no significant changes in the baseline Ca^2+ signaling | dramatic fission and clumping of mitochondria | 28.4 ± 2.66 µM | increased accumulation of cells in the subG1 phase, albeit not statistically significant | cell accumulation in the G0/G1 phase
0.52 | 3.64 | 0.69 | – | 4.57 | 4.62 | CCCc1nc2c(C)cc(-c3nc4ccccc4n3C)cc2n1Cc1ccc(-c2ccccc2C(=O)NC(Cc2ccc(O)cc2)C(=O)O)cc1 (stereo not drawn) [compound 3, 2-{[4′-(1,7′-dimethyl-2′-propyl-1H-[2,5′]bibenzoimidazolyl-3′-ylmethyl)-biphenyl-2-carbonyl]-amino}-3-(4-hydroxy-phenyl)-propionic acid] | 63.46 ± 0.23 µM | did not prevent AngII-induced Ca^2+ increase | no significant changes in the baseline Ca^2+ signaling | disrupted the mitochondrial network to a greater extent than telmisartan | 31 ± 2.38 µM | increased accumulation of cells in the subG1 phase, albeit not statistically significant | cell cycle profile comparable to that of the untreated control cells
